For this experiment, the target named is T1, NLRP3 (Homo sapiens, UniProt Q96P20).
T1 construct: Measurement of IL-1β Production in PMA-Differentiated THP-1 Cells; host or cells: THP-1 cells, PMA-differentiated
T1 sequence (Q96P20 whole entry): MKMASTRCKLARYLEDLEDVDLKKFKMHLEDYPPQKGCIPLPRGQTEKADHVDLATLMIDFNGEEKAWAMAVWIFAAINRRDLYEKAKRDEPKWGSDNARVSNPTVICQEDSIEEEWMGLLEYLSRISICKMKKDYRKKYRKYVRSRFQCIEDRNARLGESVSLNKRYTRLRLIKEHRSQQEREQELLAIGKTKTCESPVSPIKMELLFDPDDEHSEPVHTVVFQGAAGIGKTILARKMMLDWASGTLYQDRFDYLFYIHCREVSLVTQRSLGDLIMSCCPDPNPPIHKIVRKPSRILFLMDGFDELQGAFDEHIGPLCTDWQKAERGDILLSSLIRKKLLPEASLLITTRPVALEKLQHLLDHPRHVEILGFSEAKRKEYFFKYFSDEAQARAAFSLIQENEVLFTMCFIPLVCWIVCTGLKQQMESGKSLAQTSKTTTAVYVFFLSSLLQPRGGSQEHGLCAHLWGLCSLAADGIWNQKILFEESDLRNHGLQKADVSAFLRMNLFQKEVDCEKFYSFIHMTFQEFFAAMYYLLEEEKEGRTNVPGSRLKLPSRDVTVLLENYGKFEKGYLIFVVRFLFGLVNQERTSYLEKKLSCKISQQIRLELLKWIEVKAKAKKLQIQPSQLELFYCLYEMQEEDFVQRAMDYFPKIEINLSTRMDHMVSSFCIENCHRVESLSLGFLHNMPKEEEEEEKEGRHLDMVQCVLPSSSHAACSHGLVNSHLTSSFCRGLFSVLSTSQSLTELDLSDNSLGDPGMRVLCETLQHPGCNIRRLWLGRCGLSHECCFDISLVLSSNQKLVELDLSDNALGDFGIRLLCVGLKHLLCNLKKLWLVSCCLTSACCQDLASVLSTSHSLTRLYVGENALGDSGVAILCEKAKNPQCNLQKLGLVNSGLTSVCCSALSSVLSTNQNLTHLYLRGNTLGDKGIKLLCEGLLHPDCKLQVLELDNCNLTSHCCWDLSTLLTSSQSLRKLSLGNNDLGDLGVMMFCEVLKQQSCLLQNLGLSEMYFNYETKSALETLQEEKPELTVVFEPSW
The experiment is described as follows: Measurement of IL-1β production in PMA-differentiated THP-1 cells (NLRP3 hIL1β). The experiment is classed as cell-based. As to the method: Measurement of IL-1β Production in PMA-Differentiated THP-1 Cells
THP-1 cells were purchased from the American Type Culture Collection and sub-cultured according to instructions from the supplier. Prior to experiments, cells were cultured in RPMI 1640 containing 10% heat inactivated FBS, penicillin (100 units/ml) and streptomycin (100 μg/ml), and maintained in log phase prior to experimental setup. Prior to the experiment THP-1 were treated with PMA (Phorbol 12-myristate 13-acetate) (10 μg/ml) for 24 hours. The day of the experiment the media was removed and attaching cells were treated with trypsin for 2 minutes, cells were then collected, washed with PBS (phosphate buffer saline), spin down, resuspended in 2% heat inactivated FBS with RPMI at a concentration of 1×10^6 cells/ml, and 100 μl was plated in a 96 well plate. Compounds were dissolved in dimethyl sulfoxide (DMSO) and added to the culture medium to achieve desired concentration (e.g. 100, 30, 10, 3, 1, 0.3 or 0.1 μM). Cells were incubated with compounds for 4 hours. Cell free supernatant was collected and the production of IL-1β was evaluated by ELISA. A vehicle only control was run concurrently with each experiment. Final DMSO concentration was 1%.
Measurement of IL-1β Production in PMA-Differentiated THP-1 Cells (Alternative Procedure)
THP-1 cells were purchased from the American Type Culture Collection and sub-cultured according to instructions from the supplier. Prior to experiments, cells were cultured in RPMI 1640 containing 10% heat inactivated FBS, penicillin (100 units/ml), streptomycin (100 μg/ml), HEPES (10 mM) and sodium pyruvate (1 mM) and maintained in log phase prior to experimental setup. Prior to the experiment, THP-1 cells were treated with PMA (Phorbol 12-myristate 13-acetate) (20 μg/ml) overnight. The day of the experiment, the media was removed and attached cells were treated with trypsin for 2 minutes, cells were then collected, washed with PBS (phosphate buffer saline), pelleted by centrifugation and resuspended in 2% heat inactivated FBS with RPMI at a concentration of 50,000 cells/well in a 384 well plate. Cell free supernatant was collected and the production of IL-1β was evaluated by ELISA. Compounds were dissolved in dimethyl sulfoxide (DMSO) and added to the culture medium to achieve desired concentration (e.g. 100, 30, 10, 3, 1, 0.3 or 0.1 μM). Cells were incubated with compounds for 2 hours. A vehicle only control was run concurrently with each experiment. Final DMSO concentration was 1%.
Measurement of IL-1β Production—hTRF Protocol (Second Alternative Procedure)
Serial dilutions of compounds in DMSO were added to low volume 384 well plates at 100 nl/well using an ECHO 550 acoustic dispenser (Labcyte) to achieve final starting concentration of 10 μM in assay.
THP-1 cells in RPMI (Gibco, 11875) media with 10% FBS at a density of 1×10^6 cell/ml in a T175 flask were treated with a final concentration of phorbol 12-myristate 13-acetate (PMA) (Sigma, P1585) of 50 ng/ml overnight at 37° C. at 5% CO2 for differentiation. Cells were harvested the next day after rinsing well wth dPBS using 0.5% trypsin. A cell solution was prepared of 1×10^6 cells/ml for 50,000 cells in 50 μl/well in RPMI media with 2% FBS. Cells were plated using a multichannel pipette onto the compound dilutions in Greiner, 384 well, black clear bottom tissue culture treated plates (781090). The plates were incubated in 37° C. incubator at 5% CO2 for 2 hours.
After the 2 hour incubation, the cell plates were spun in the centrifuge for 5 minutes at 1200 rpm. Using the Felix (CyBio), 8 μl of the supernatant was transferred to 384 well, low volume, white proxy plates. (Perkin Elmer, 6008230). A human IL1beta hTRF kit was used to analyze the supernatant (CISBIO, 62HIL1BPEG). The kit instructions were followed for preparing the IL1Beta standard curve and then the antibodies from the kit were diluted 1:40 rather than 1:20 as kit instructed. […]
Compound `Nc1cc(NCc2cccnn2)c2ccc(-c3cc[nH]n3)nc2n1` [Example 9] came in with a concentration for a half-maximal effect (EC50) of 2000 nM. That is a single-digit micromolar value.
With `Nc1cc(N[C@H]2CCOC2)c2ccc(-c3cc[nH]n3)nc2n1` [Example 10] the figure was 930 nM; with `Nc1nc(NCCc2ccccn2)c2ncc(-c3cc[nH]n3)cc2n1` [Example 19], 690 nM; with `Nc1cc(NCCO)c2ncc(-c3ccn[nH]3)cc2n1` [Example 3, 2-((2-amino-7-(1H-pyrazol-3-yl)-1,5-naphthyridin-4-yl)amino)ethan-1-ol], 310 nM.
The compound `Nc1cc(N[C@H]2CC[C@H](O)C2)c2ncc(-c3ccn[nH]3)cc2n1` [Example 4, (1S,3S)-3-((2-amino-7-(1H-pyrazol-5-yl)-1,5-naphthyridin-4-yl)amino)cyclopentan-1-ol] showed an EC50 of 3500 nM.
Compound `Nc1cc(N[C@@H]2CCOC2)c2ncc(-c3ccn[nH]3)cc2n1` [Example 14] came in with a half-maximal effective concentration (EC50) of 2600 nM.
Regarding `Nc1cc(-c2cc[nH]n2)c2ncc(-c3ccn[nH]3)cc2n1` [Example 5, 4-(1H-pyrazol-3-yl)-7-(1H-pyrazol-5-yl)-1,5-naphthyridin-2-amine], the EC50 came out at 860 nM.
`Nc1cc(N[C@H]2C[C@H](O)C2)c2ncc(-c3ccn[nH]3)cc2n1` [Example 28] registered a concentration for a half-maximal effect (EC50) of 140 nM.
Take `Nc1nc(N[C@H]2CC[C@H](O)C2)c2ccc(-c3ccn[nH]3)nc2n1` [Example 7, (1S,3 S)-3-((2-amino-7-(1H-pyrazol-5-yl)pyrido[2,3-d]pyrimidin-4-yl)amino)cyclopentan-1-ol]: the EC50 amounted to 5700 nM.
Consider `Nc1cc(N[C@H]2CC[C@H](O)C2)c2ccc(-c3cc[nH]n3)nc2n1` [Example 8], for which the EC50 stood at 1600 nM. This EC50 lies about 3.6-fold lower than the previous one.
Regarding `Nc1cc(NCCCO)c2cnc(-c3cc[nH]n3)cc2n1` [Example 11], the midpoint of the response, the EC50, lay at 1700 nM.
With `Nc1cc(NCc2cc[nH]n2)c2ncc(-c3ccn[nH]3)cc2n1` [Example 15] the figure was 280 nM; with `Nc1cc(N[C@@H]2CC[C@@H](O)C2)c2ncc(-c3ccn[nH]3)cc2n1` [Example 26], 590 nM; with `Nc1nc(NCCO)c2ncc(-c3cc[nH]n3)cc2n1` [Example 20], 1900 nM.
For `C[C@@H](O)CNc1cc(N)nc2cc(-c3ccn[nH]3)cnc12` [Example 25] the value was 80 nM; for `Nc1nc(NCc2cncnc2)c2ncc(-c3cc[nH]n3)cc2n1` [Example 18], 2000 nM.
Consider `C[C@H](O)CNc1cc(N)nc2cc(-c3ccn[nH]3)cnc12` [Example 24], for which the half-maximal effective concentration (EC50) amounted to 310 nM.
`Nc1nc(N2CCCOCC2)c2ncc(-c3cc[nH]n3)cc2n1` [Example 21]: it took 700 nM to reach a half-maximal effect (EC50).
As for `Nc1cc(N[C@H]2CCOC2)c2cnc(-c3cc[nH]n3)cc2n1` [Example 12], the 50% effective concentration (EC50) amounted to 1700 nM.
With `Nc1cc(NCCCO)c2ncc(-c3ccn[nH]3)cc2n1` [Example 16], the EC50 amounted to 350 nM. This EC50 is about 4.9-fold lower than that of the compound before.
`Nc1cc(N[C@H]2CC[C@H](O)C2)c2cnc(-c3ccn[nH]3)cc2n1` [Example 2, (1S,3S)-3-((2-amino-7-(1H-pyrazol-5-yl)-1,6-naphthyridin-4-yl)amino)cyclopentan-1-ol]: the EC50 is 17000 nM. This EC50 is about 49-fold higher than that of the compound before.
As for `Nc1cc(NCc2cccnn2)c2ncc(-c3ccn[nH]3)cc2n1` [Example 29], the EC50 was found to be 280 nM.
Compound `Nc1nc(N[C@@H]2CCOC2)c2ncc(-c3cc[nH]n3)cc2n1` [Example 6, (R)-7-(1H-pyrazol-3-yl)-N4-(tetrahydrofuran-3-yl)pyrido[3,2-d]pyrimidine-2,4-diamine] returned a concentration for a half-maximal effect (EC50) of 3600 nM.
In the case of `Nc1cc(NCCCO)c2ccc(-c3cc[nH]n3)nc2n1` [Example 1, 3-((2-amino-7-(1H-pyrazol-3-yl)-1,8-naphthyridin-4-yl)amino)propan-1-ol], the EC50 is 1000 nM.
With `Nc1nc(NCCCO)c2ncc(-c3cc[nH]n3)cc2n1` [Example 17] the figure was 830 nM.
